# According to patent US10271543B2, “Systems and methods for cryopreservation of cells” (Cook General Biotechnology LLC, priority 2006, dated 2019):
# Key:
# human red blood cells = conditions: 3.3M (30%) glycerol; over a 2-3 log range in cooling rates; cited from earlier work
# human spermatozoa = experiment: Cytotoxicity of bound cholesterol on semen in culture (motility evaluations); assay type: cell-based; conditions: culture plates coated with 100 µl sterol solution; 1, 2, 4 and 8 hours of incubation
# Experimental: In this experiment, liquefied semen samples were exposed to culture plates that had been coated with 100 µl of the sterol solution.
SMILES,survival (human red blood cells),cytotoxic effect (motility evaluations) (human spermatozoa)
OCC(O)CO [glycerol],around 90%,
"CC(C)CCC[C@@H](C)[C@H]1CC[C@H]2[C@@H]3CC=C4C[C@@H](O)CC[C@]4(C)[C@H]3CC[C@]12C [bound cholesterol, cholesterol]",,no significant cytotoxic effect
